How the values were obtained:
Format in all cases: functional, cell-based
HeLa = assay: Antiproliferative activity against human HeLa cells after 24 hrs by MTT assay
MCF7 = assay: Antiproliferative activity against human MCF7 cells after 24 hrs by MTT assay; settings: MCF7, 24 h
DU-145 = assay: Antiproliferative activity against human DU145 cells after 24 hrs by MTT assay; settings: DU-145, 24 h

IC50 (HeLa) [µM] | IC50 (MCF7) [µM] | IC50 (DU-145) [µM] | SMILES
> 100 | > 100 | 63.7 | Cc1ccc2c(c1)C(=O)C(=O)N2CCCn1cc(Cn2ccc(=O)n(Cc3cn(CCCN4C(=O)C(=O)c5cc(C)ccc54)nn3)c2=O)nn1
65.7 | 38.2 | > 100 | O=C1C(=O)N(CCn2cc(Cn3cc(Cl)c(=O)n(Cc4cn(CCN5C(=O)C(=O)c6cc(Cl)ccc65)nn4)c3=O)nn2)c2ccc(Cl)cc21
> 100 | > 100 | 42.8 | O=C1C(=O)N(CCn2cc(Cn3ccc(=O)n(Cc4cn(CCN5C(=O)C(=O)c6cc(Cl)ccc65)nn4)c3=O)nn2)c2ccc(Cl)cc21
33.1 | > 100 | 13.9 | O=C1C(=O)N(CCCn2cc(Cn3ccc(=O)n(Cc4cn(CCCN5C(=O)C(=O)c6cc(Cl)ccc65)nn4)c3=O)nn2)c2ccc(Cl)cc21
> 100 | 63.3 | > 100 | O=C1C(=O)N(CCn2cc(Cn3cc(F)c(=O)n(Cc4cn(CCN5C(=O)C(=O)c6cc(Cl)ccc65)nn4)c3=O)nn2)c2ccc(Cl)cc21
50.7 | 56.4 | > 100 | O=C1C(=O)N(CCCn2cc(Cn3ccc(=O)n(Cc4cn(CCCN5C(=O)C(=O)c6ccccc65)nn4)c3=O)nn2)c2ccccc21
52.4 | 98.7 | 66.2 | O=C1C(=O)N(CCCn2cc(Cn3ccc(=O)n(Cc4cn(CCCN5C(=O)C(=O)c6cc(F)ccc65)nn4)c3=O)nn2)c2ccc(F)cc21
> 100 | 45.5 | 57.8 | O=C1C(=O)N(CCn2cc(Cn3ccc(=O)n(Cc4cn(CCN5C(=O)C(=O)c6ccccc65)nn4)c3=O)nn2)c2ccccc21
> 100 | > 100 | 18.2 | O=C1C(=O)N(CCn2cc(Cn3cc(Cl)c(=O)n(Cc4cn(CCN5C(=O)C(=O)c6ccccc65)nn4)c3=O)nn2)c2ccccc21
52.6 | 51.1 | 38.2 | Cc1ccc2c(c1)C(=O)C(=O)N2CCn1cc(Cn2ccc(=O)n(Cc3cn(CCN4C(=O)C(=O)c5cc(C)ccc54)nn3)c2=O)nn1
> 100 | > 100 | 28.6 | O=C1C(=O)N(CCn2cc(Cn3cc(F)c(=O)n(Cc4cn(CCN5C(=O)C(=O)c6ccccc65)nn4)c3=O)nn2)c2ccccc21
> 100 | 43.1 | > 100 | O=C1C(=O)N(CCn2cc(Cn3ccc(=O)n(Cc4cn(CCN5C(=O)C(=O)c6cc(F)ccc65)nn4)c3=O)nn2)c2ccc(F)cc21
